Here are results for two molecules from patent publication US20060223782A1, “2-Methylene-19-nor-(23S)-25-dehydro-1alpha-hydroxyvitamin D3-26,23-lactone and 2-methylene-19-nor-(23R)-25-dehydro-1alpha-hydroxyvitamin D3-26,23-lactone” (Wisconsin Alumni Research Foundation, priority 2005, published 2006).

In test [1] the target is T1, full-length recombinant rat vitamin D receptor (Rattus norvegicus, UniProt P13053).
T1 construct: Full-length recombinant rat vitamin D receptor was expressed in E. coli; histidine tag (C); made in house; host or cells: E. coli BL21(DE3) Codon Plus RIL
T1 sequence (P13053 1-423): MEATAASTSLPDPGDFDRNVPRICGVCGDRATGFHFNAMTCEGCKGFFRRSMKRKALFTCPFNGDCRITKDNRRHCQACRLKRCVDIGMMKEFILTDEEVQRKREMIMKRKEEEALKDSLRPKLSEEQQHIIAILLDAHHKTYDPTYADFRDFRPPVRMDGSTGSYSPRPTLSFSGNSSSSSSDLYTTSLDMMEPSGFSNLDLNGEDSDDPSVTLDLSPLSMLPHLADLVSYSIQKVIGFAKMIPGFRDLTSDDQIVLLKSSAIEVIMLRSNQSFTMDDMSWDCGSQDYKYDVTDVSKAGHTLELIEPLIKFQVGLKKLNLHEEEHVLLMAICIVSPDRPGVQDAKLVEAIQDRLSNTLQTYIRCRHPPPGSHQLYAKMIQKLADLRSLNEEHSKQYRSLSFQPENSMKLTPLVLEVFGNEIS
The experiment in a line: Vitamin D receptor competitive binding with [3H]-1,25-(OH)2-D3. The settings on record: competition with [3H]-1,25-(OH)2-D3; FIG. 1. As for the experimental part:
The first system was a nickel affinity resin that utilizes the C-terminal histidine tag on this protein. The protein that was eluted from this resin was further purified using ion exchange chromatography (S-Sepharose Fast Flow). Aliquots of the purified protein were quick frozen in liquid nitrogen and stored at −80° C. until use. For use in binding assays, the protein was diluted in TEDK50 (50 mM Tris, 1.5 mM EDTA, pH 7.4, 5 mM DTT, 150 mM KCl) with 0.1% Chaps detergent. The receptor protein and ligand concentration was optimized such that no more than 20% of the added radiolabeled ligand was bound to the receptor.
Radiolabeled and unlabeled ligands were added to 100 mcl of the diluted protein at a final ethanol concentration of ≦10%, mixed and incubated overnight on ice to reach binding equilibrium. The following day, 100 mcl of hydroxylapatite slurry (50%) was added to each tube and mixed at 10-minute intervals for 30 minutes. The hydroxylapaptite was collected by centrifugation and then washed three times with Tris-EDTA buffer (50 mM Tris, 1.5 mM EDTA, pH 7.4) containing 0.5% Titron X-100. After the final wash, the pellets were transferred to scintillation vials containing 4 mL of Biosafe II scintillation cocktail, mixed and placed in a scintillation counter. Total binding was determined from the tubes containing only radiolabeled ligand.

For test [2], the system named is 24-hydroxylase (24OHase) gene promoter in ROS 17/2.8 (bone) cells. The experiment in a line: In vitro transcription assay, antagonism of 1,25(OH)2D3 (24OHase promoter-luciferase). The format is cell-based. To be noted: combination with 1,25(OH)2D3 in the same well; FIGS. 3-5. As for the experimental part:
Transcription activity was measured in ROS 17/2.8 (bone) cells that were stably transfected with a 24-hydroxylase (24OHase) gene promoter upstream of a luciferase reporter gene (Arbour et al., 1998). Cells were given a range of doses. Sixteen hours after dosing the cells were harvested and luciferase activities were measured using a luminometer. RLU=relative luciferase units.
Antagonism was tested by adding a combination of 1,25(OH)2D3 and the compound in the same well keeping the final ethanol concentration the same.

The test system of test [3] is Sprague-Dawley rats. The experiment in a line: Bone calcium mobilization (serum calcium). Type of test: in vivo, rat. To be noted: four consecutive ip doses, even at 2,340 pmol/day, FIG. 6. As for the experimental part:
(§1) Male, weanling Sprague-Dawley rats were placed on Diet 11 (Suda et al. J. Nutr. 100:1049, 1970) (0.47% Ca) diet+vitamins AEK for one week followed by Diet 11 (0.02% Ca)+AEK for 3 weeks. The rats were then switched to a diet containing 0.47% Ca for one week followed by two weeks on a diet containing 0.02% Ca. Dose administration began during the last week on 0.02% calcium diet. Four consecutive ip doses were given approximately 24 hours apart. Twenty-four hours after the last dose, blood was collected from the severed neck and the concentration of serum calcium determined as a measure of bone calcium mobilization. The first 10 cm of the intestine was also collected for intestinal calcium transport analysis using the everted gut sac method. Antagonism was tested by administering a combination of 1,25(OH)2D3 and the compound to the animal simultaneously.

Test [4] relates to Sprague-Dawley rats. The experiment in a line: Intestinal calcium transport (everted gut sac method). The format is in vivo, rat. To be noted: four consecutive ip doses, FIG. 7. As for the experimental part:
as §1

A further test relates to HL-60 cells. The experiment in a line: HL-60 differentiation (nitro blue tetrazolium reduction). The format is cell-based, human. The settings on record: FIG. 2. As for the experimental part:
The study drugs were dissolved in ethanol and the concentrations determined using UV spectrophotometry. Serial dilutions were prepared so that a range of drug concentrations could be tested without changing the final concentration of ethanol (≦0.2%) present in the cell cultures.
Human promyelocyiic leukemia (HL60) cells were grown in RPMI-1640 medium containing 10% fetal bovine serum. The cells were incubated at 37° C. in the presence of 5% CO2.
HL60 cells were plated at 1.2×10^5 cells/mL. Eighteen hours after plating, cells in duplicate were treated with drug. Four days later, the cells were harvested and a nitro blue tetrazolium reduction assay was performed (Collins et al., 1979; J. Exp. Med. 149:969-974). The percentage of differentiated cells was determined by counting a total of 200 cells and recording the number that contained intracellular black-blue formazan deposits. Verification of differentiation to monocytic cells was determined by measuring phagocytic activity (data not shown).

Consider `C=C1C[C@@H](C[C@@H](C)C2CC[C@H]3/C(=C/C=C4C[C@@H](O)C(=C)[C@H](O)C4)CCC[C@]23C)OC1=O` (stereo partly drawn) [GC-3, 2-methylene-19-nor-(23R)-25-dehydro-1α-hydroxyvitamin D3-26,23-lactone], for which the “binding to the vitamin D receptor relative to 1α,25-dihydroxyvitamin D3” value in test [1] was “less active”. Moreover, the “antagonistic activity when administered along with 1α,25-dihydroxyvitamin D3 (transcription)” value in test [2] was “shows antagonistic activity”. In addition, the “calcemic activity measured by bone calcium mobilization” value in the test with Sprague-Dawley rats [3] is “no calcemic activity”. Moreover, the intestinal calcium transport result in the test with Sprague-Dawley rats [4] was “retain the ability to elevate intestinal calcium transport”. Further, the “activity in inducing differentiation of HL-60 cells relative to 1,25-(OH)2D3” value in the test with HL-60 cells is listed as “less activity than 1,25-(OH)2D3”.

With `C=C1C[C@H](C[C@@H](C)C2CC[C@H]3/C(=C/C=C4C[C@@H](O)C(=C)[C@H](O)C4)CCC[C@]23C)OC1=O` (stereo partly drawn) [HLV, 2-methylene-19-nor-(23S)-25-dehydro-1α-hydroxyvitamin D3-26,23-lactone], the “binding to the vitamin D receptor relative to 1α,25-dihydroxyvitamin D3” value in test [1] is “less active”. Besides, the “antagonistic activity when administered along with 1α,25-dihydroxyvitamin D3 (transcription)” value in test [2] is “antagonistic activity to an even greater extent”. The “calcemic activity measured by bone calcium mobilization” value in the test on Sprague-Dawley rats [3] is reported as “no calcemic activity”. In addition, in the test with Sprague-Dawley rats [4], the intestinal calcium transport entry is on record as “retain the ability to elevate intestinal calcium transport”. In the test on HL-60 cells, the “activity in inducing differentiation of HL-60 cells relative to 1,25-(OH)2D3” value is “less activity than 1,25-(OH)2D3”.
